{
  "source": "patent US20020026053A1",
  "about": "“Novel 3-(substituted) -2- indolinones compounds and use thereof as inhibitors of protein kinase activity” (priority 1997, published 2002)",
  "biological_target": "T1, EGFR (Homo sapiens, UniProt P00533)",
  "T1 construct": "endogenous in cells; host or cells: A431 cells (lysate, captured with SUMO1 anti-EGFR antibody)",
  "T1 sequence (P00533 25-1210)": "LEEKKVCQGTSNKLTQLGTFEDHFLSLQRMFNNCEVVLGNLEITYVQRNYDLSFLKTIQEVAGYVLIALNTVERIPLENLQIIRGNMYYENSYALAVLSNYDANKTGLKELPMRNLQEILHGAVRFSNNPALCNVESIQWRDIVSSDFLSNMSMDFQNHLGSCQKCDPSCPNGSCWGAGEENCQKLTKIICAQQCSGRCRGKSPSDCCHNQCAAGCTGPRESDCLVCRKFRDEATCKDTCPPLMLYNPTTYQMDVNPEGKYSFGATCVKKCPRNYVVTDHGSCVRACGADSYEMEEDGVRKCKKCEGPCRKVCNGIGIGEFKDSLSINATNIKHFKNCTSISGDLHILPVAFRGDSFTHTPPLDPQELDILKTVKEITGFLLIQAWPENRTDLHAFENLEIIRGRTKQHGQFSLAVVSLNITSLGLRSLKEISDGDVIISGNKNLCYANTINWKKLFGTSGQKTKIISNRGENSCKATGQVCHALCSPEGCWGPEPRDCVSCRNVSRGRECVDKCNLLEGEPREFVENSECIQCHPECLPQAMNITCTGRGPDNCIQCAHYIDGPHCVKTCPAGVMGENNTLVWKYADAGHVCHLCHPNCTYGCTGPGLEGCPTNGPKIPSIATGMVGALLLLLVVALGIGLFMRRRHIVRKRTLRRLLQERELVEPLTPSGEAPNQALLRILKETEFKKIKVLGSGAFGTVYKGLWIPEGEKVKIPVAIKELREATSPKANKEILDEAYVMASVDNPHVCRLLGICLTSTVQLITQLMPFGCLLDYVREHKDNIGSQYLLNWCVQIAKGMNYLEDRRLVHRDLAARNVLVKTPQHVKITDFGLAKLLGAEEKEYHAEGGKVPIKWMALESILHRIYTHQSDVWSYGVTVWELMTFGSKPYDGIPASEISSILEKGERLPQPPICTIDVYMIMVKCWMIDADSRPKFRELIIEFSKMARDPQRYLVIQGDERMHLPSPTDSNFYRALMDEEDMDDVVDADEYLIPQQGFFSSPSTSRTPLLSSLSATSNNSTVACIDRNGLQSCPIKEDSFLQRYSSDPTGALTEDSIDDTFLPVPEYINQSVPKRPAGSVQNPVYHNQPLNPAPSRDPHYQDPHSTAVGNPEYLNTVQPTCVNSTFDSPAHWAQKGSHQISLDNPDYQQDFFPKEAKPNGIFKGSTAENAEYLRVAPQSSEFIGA",
  "assay": "Biochemical EGFR Assay",
  "parameters": "concentration or dose not given beside the values",
  "description": "This assay measures the in vitro kinase activity of EGFR using ELISA.\n1. Corning 96-well Elisa plates (Corning Catalog No. 25805-96).\n2. SUMO1 monoclonal anti-EGFR antibody (Biochemistry Lab, SUGEN, Inc.).\n3. PBS (Dulbecco's Phosphate-Buffered Saline, Gibco Catalog No. 450-1300EB).\n6. A431 cell lysate (Screening Lab, SUGEN, Inc.)\n9. Adenosine-5′-triphosphate (ATP, from Equine muscle, Sigma Cat. No. A-5394).\nPrepare a 1.0 mM solution in dH2O. This reagent should be made up immediately prior to use and kept on ice.\nPrepare a 1.0 M stock solution in dH2O.\n11. ATP/MnCl2 phosphorylation mix\nThis reagent should be prepared immediately before use and kept on ice\n12. NUNC 96-well V bottom polypropylene plates (Applied Scientific Cat. No. AS-72092).\n13. Ethylenediaminetetraacetic acid (EDTA)\nPrepare 200 mM working solution in dH2O. Adjust to pH 8.0 with 10 N NaOH.\n14. Rabbit polyclonal anti-phosphotyrosine serum (Biochemistry Lab, SUGEN, Inc.)\n15. Goat anti-rabbit IgG peroxidase conjugate (Biosource Cat. No. ALI0404)\n16. ABTS (2,2′-azino-bis(3-ethylbenzthiazoline-6-sulfonic acid), Sigma Cat. No. A-1888).\nMix first two ingredients in about 900 ml dH2O, adjust pH to 4.0 with phosphoric acid. Add ABTS, cover, let sit about 0.5 hr., filter. The solution should be kept in the dark at 4° C. until ready to use.\n17. Hydrogen peroxide 30% solution (Fisher Cat. No. H325)\nMix 15 ml ABTS solution and 2.0 μl H2O2. Prepare 5 minutes before use.\n1. Coat Corning 96 well ELISA plates with 0.5 μg SUMO1 in 100 μl PBS per well, store overnight at 4° C.\n2. Remove unbound SUMO1 from wells by inverting plate to remove liquid. Wash 1× with dH2O. Pat the plate on a paper towel to remove excess liquid.\n3. Add 150 μl of Blocking Buffer to each well. Incubate for 30 min. at room temperature with shaking.\n4. Wash plate 3× with deionized water, then once with TBST. Pat plate on a paper towel to remove excess liquid and bubbles.\n5. Dilute lysate in PBS (7 μg lysate/100 μl PBS)\n6. Add 100 μl of diluted lysate to each well. Shake at room temperature for 60 min.\n7. Wash plates as described in 4, above.\n8. Add 120 μl TBS to ELISA plate containing captured EGFR.\n9. Dilute test compound 1:10 in TBS in 96-well polypropylene plates (ie. 10 μl compound+90 μl TBS).\n10. Add 13.5 μl diluted test compound to ELISA plate.\n11. Incubate for 30 minutes while shaking at room temperature.\n13. After 5 minutes, stop reaction by adding 16.5 μl of 200 mM EDTA (pH 8.0) to each well, shaking continuously. After the EDTA has been added, shake for 1 min.\n14. Wash 4× with deionized water, twice with TBST.\n15. Add 100 μl anti-phosphotyrosine (1:3000 dilution in TBST) per well. Incubate 30-45 min. at room temperature, with shaking.\n16. Wash as described in 4, above.\n17. Add 100 μl Biosource Goat anti-rabbit IgG peroxidase conjugate (1:2000 dilution in TBST) to each well. Incubate 30 min. at room temperature, with shaking.\n18. Wash as described in 4, above.\n19. Add 100 μl of ABTS/H2O2 solution to each well.\n20. Incubate 5 to 10 minutes with shaking. Remove any bubbles.\n21. If necessary stop reaction with the addition of 100 μl 0.2 M HCl per well.\n22. Read assay on Dynatech MR7000 ELISA reader. Test Filter: 410 nM Reference Filter: 630 nM",
  "data": [
    {"compound": "Cc1c(Br)cc(Br)c2c1C(=CC(c1cccs1)C(F)(F)F)C(=O)N2", "note": "(centres unmarked) [10732/H02]", "values": [
      {"measurement": "Biochem EGFR % Inhibition (P.167)", "result": 13.0, "unit": "%"}
    ]},
    {"compound": "COc1c(C(C)C)cc(C=C2C(=O)Nc3c(Br)cc(Br)c(C)c32)cc1C(C)C", "note": "[10732/H03]", "values": [
      {"measurement": "Biochem EGFR % Inhibition (P.167)", "result": 1.4, "unit": "%"}
    ]},
    {"compound": "Cc1c(Br)cc(Br)c2c1C(=Cc1cc(C(C)C)c(Oc3ccccc3)c(C(C)C)c1)C(=O)N2", "note": "[10732/H04]", "values": [
      {"measurement": "Biochem EGFR % Inhibition (P.167)", "result": "−0.7", "unit": "%"}
    ]},
    {"compound": "COc1ccc(C=C2C(=O)Nc3c(Br)cc(Br)c(C)c32)cc1C(C)(C)C", "note": "[10732/H05]", "values": [
      {"measurement": "Biochem EGFR % Inhibition (P.167)", "result": "−2.9", "unit": "%"}
    ]},
    {"compound": "Cc1c(Br)cc(Br)c2c1C(=Cc1ccc(OCc3ccccc3)c(C(C)(C)C)c1)C(=O)N2", "note": "[10732/H06]", "values": [
      {"measurement": "Biochem EGFR % Inhibition (P.167)", "result": "−6.9", "unit": "%"}
    ]},
    {"compound": "COc1c(Br)cc(C=C2C(=O)Nc3c(Br)cc(Br)c(C)c32)cc1C(C)(C)C", "note": "[10732/H07]", "values": [
      {"measurement": "Biochem EGFR % Inhibition (P.167)", "result": "−15.3", "unit": "%"}
    ]},
    {"compound": "Cc1c(Br)cc(Br)c2c1C(=Cc1cc(Br)c(OCc3ccccc3)c(C(C)(C)C)c1)C(=O)N2", "note": "[10732/H08]", "values": [
      {"measurement": "Biochem EGFR % Inhibition (P.167)", "result": "−14.0", "unit": "%"}
    ]},
    {"compound": "COc1c(Cl)cc(C=C2C(=O)Nc3c(Br)cc(Br)c(C)c32)cc1C(C)(C)C", "note": "[10732/H09]", "values": [
      {"measurement": "Biochem EGFR % Inhibition (P.167)", "result": "−7.4", "unit": "%"}
    ]},
    {"compound": "Cc1c(Br)cc(Br)c2c1C(=Cc1cc(Cl)c(OCc3ccccc3)c(C(C)(C)C)c1)C(=O)N2", "note": "[10732/H10]", "values": [
      {"measurement": "Biochem EGFR % Inhibition (P.167)", "result": "−21.3", "unit": "%"}
    ]},
    {"compound": "COc1c(I)cc(C=C2C(=O)Nc3c(Br)cc(Br)c(C)c32)cc1C(C)(C)C", "note": "[10732/H11]", "values": [
      {"measurement": "Biochem EGFR % Inhibition (P.167)", "result": "−15.1", "unit": "%"}
    ]},
    {"compound": "Cc1c(Br)cc(Br)c2c1C(=Cc1cc(I)c(OCc3ccccc3)c(C(C)(C)C)c1)C(=O)N2", "note": "[10733/H02]", "values": [
      {"measurement": "Biochem EGFR % Inhibition (P.167)", "result": 3.2, "unit": "%"}
    ]},
    {"compound": "COc1c([N+](=O)[O-])cc(C=C2C(=O)Nc3c(Br)cc(Br)c(C)c32)cc1C(C)(C)C", "note": "[10733/H03]", "values": [
      {"measurement": "Biochem EGFR % Inhibition (P.167)", "result": "−16.5", "unit": "%"}
    ]},
    {"compound": "COc1c(C(C)(C)C)cc(C=C2C(=O)Nc3c(Br)cc(Br)c(C)c32)cc1C(C)(C)C", "note": "[10733/H04]", "values": [
      {"measurement": "Biochem EGFR % Inhibition (P.167)", "result": "−24.0", "unit": "%"}
    ]},
    {"compound": "Cc1c(Br)cc(Br)c2c1C(=Cc1cc(C(C)(C)C)c(OCc3ccccc3)c(C(C)(C)C)c1)C(=O)N2", "note": "[10733/H05]", "values": [
      {"measurement": "Biochem EGFR % Inhibition (P.167)", "result": 15.9, "unit": "%"}
    ]},
    {"compound": "COc1c(C)cc(C=C2C(=O)Nc3c(Br)cc(Br)c(C)c32)cc1C", "note": "[10733/H06]", "values": [
      {"measurement": "Biochem EGFR % Inhibition (P.167)", "result": "−10.5", "unit": "%"}
    ]},
    {"compound": "Cc1cc(C=C2C(=O)Nc3c(Br)cc(Br)c(C)c32)cc(C)c1OCc1ccccc1", "note": "[10733/H07]", "values": [
      {"measurement": "Biochem EGFR % Inhibition (P.167)", "result": "−6.2", "unit": "%"}
    ]},
    {"compound": "COc1cc(Br)cc(C=C2C(=O)Nc3c(Br)cc(Br)c(C)c32)c1O", "note": "[10733/H08]", "values": [
      {"measurement": "Biochem EGFR % Inhibition (P.167)", "result": 0.3, "unit": "%"}
    ]},
    {"compound": "Cc1c(Br)cc(Br)c2c1C(=Cc1cc(Br)ccc1O)C(=O)N2", "note": "[10733/H09]", "values": [
      {"measurement": "Biochem EGFR % Inhibition (P.167)", "result": "−3.1", "unit": "%"}
    ]},
    {"compound": "Cc1c(Br)cc(Br)c2c1C(=Cc1cc([N+](=O)[O-])ccc1O)C(=O)N2", "note": "[10733/H10]", "values": [
      {"measurement": "Biochem EGFR % Inhibition (P.167)", "result": "−3.1", "unit": "%"}
    ]},
    {"compound": "COc1c(O)ccc(C=C2C(=O)Nc3c(Br)cc(Br)c(C)c32)c1[N+](=O)[O-]", "note": "[10733/H11]", "values": [
      {"measurement": "Biochem EGFR % Inhibition (P.167)", "result": 7.0, "unit": "%"}
    ]}
  ]
}
